Laboratory results reported in patent publication US12121524B2, “DNA-PK inhibitors” (VERTEX PHARMACEUTICALS INCORPORATED, priority 2018, dated 2024).
pKi: −log10 of the molar value.

Target: DNA-PK (Homo sapiens, UniProt P78527)
Assay: DNA-PK inhibition assay (standard radiometric 33P-ATP kinase assay)
Format: biochemical
Conditions: 100 μM ATP, approx. 6 nM DNA-PK
Description: Compounds were screened for their ability to inhibit DNA-PK kinase using a standard radiometric assay. Briefly, in this kinase assay the transfer of the terminal ^33P-phosphate in ^33P-ATP to a peptide substrate is interrogated. The assay was carried out in 384-well plates to a final volume of 50 μL per well containing approximately 6 nM DNA-PK, 50 mM HEPES (pH 7.5), 10 mM MgCl2, 25 mM NaCl, 0.01% BSA, 1 mM DTT, 10 μg/mL sheared double-stranded DNA (obtained from Sigma), 0.8 mg/mL DNA-PK peptide (Glu-Pro-Pro-Leu-Ser-Gln-Glu-Ala-Phe-Ala-Asp-Leu-Trp-Lys-Lys-Lys, obtained from American Peptide), and 100 μM ATP.
Accordingly, compounds of the invention were dissolved in DMSO to make 10 mM initial stock solutions. Serial dilutions in DMSO were then made to obtain the final solutions for the assay. A 0.75 μL aliquot of DMSO or inhibitor in DMSO was added to each well, followed by the addition of ATP substrate solution containing ^33P-ATP (obtained from Perkin Elmer). The reaction was started by the addition of DNA-PK, peptide and ds-DNA. After 45 min, the reaction was quenched with 25 μL of 5% phosphoric acid. The reaction mixture was transferred to MultiScreen HTS 384-well PH plates (obtained from Millipore), allowed to bind for one hour, and washed three times with 1% phosphoric acid. Following the addition of 50 μL of Ultima Gold™ high efficiency scintillant (obtained from Perkin Elmer), the samples were counted in a Packard TopCount NXT Microplate Scintillation and Luminescence Counter (Packard BioScience). The Ki values were calculated using Microsoft Excel Solver macros to fit the data to the kinetic model for competitive tight-binding inhibition.

c1cnc(N[C@H]2CC[C@@H](Nc3cc(N4CCOCC4)cc4nccnc34)CC2)cn1 [Compound 27]
pKi: > 7.00

Cc1cnc2c(O[C@H]3CC[C@@H](Nc4ncccn4)CC3)cc(N3CCOCC3)cc2n1 [Compound 190]
pKi: > 7.00

Cc1cc(N[C@H]2CC[C@@H](Oc3cc(N4CCOCC4)cc4nccnc34)CC2)ncn1 [Compound 265]
pKi: > 7.00

CCOc1cnc(N[C@H]2CC[C@@H](Oc3cc(N4CCOCC4)cc4nccnc34)CC2)nc1 [Compound 233]
pKi: > 7.00

N#Cc1cc(N[C@H]2CC[C@@H](Oc3cc(N4CCOCC4)cc4nccnc34)CC2)ncn1 [Compound 234]
pKi: > 7.00

N#Cc1ccnc(N[C@H]2CC[C@@H](Oc3cc(N4CCOCC4)cc4nccnc34)CC2)c1 [Compound 84]
pKi: > 7.00

CCOCCOc1cnc(N[C@H]2CC[C@@H](Oc3cc(N4CCOCC4)cc4nccnc34)CC2)nc1 [Compound 66]
pKi: > 7.00

O=C(O)c1ccnc(N[C@H]2CC[C@@H](Oc3cc(N4CCOCC4)cc4nccnc34)CC2)c1 [Compound 210]
pKi: > 7.00

O=C(O)c1cnc(N[C@H]2CC[C@@H](Oc3cc(N4CCOCC4)cc4nccnc34)CC2)nc1 [Compound 69]
pKi: > 7.00

CCCCc1cnc2cc(N3CCOCC3)cc(O[C@H]3CC[C@@H](Nc4ncccn4)CC3)c2n1 [Compound 63]
pKi: > 7.00

COc1cc(N[C@H]2CC[C@@H](Oc3cc(N4CCOCC4)cc4nccnc34)CC2)ncn1 [Compound 194]
pKi: > 7.00

CCOc1cc(N[C@H]2CC[C@@H](Oc3cc(N4CCOCC4)cc4nccnc34)CC2)ncn1 [Compound 215]
pKi: > 7.00

c1cnc(N[C@H]2CC[C@@H](Nc3cc(N4CCOCC4)cc4nccnc34)CC2)nc1 [Compound 18, N^1-(7-morpholinoquinoxalin-5-yl)-N^4-(pyrimidin-2-yl)cyclohexane-1,4-diamine]
pKi: > 7.00

Clc1nc(N[C@H]2CC[C@@H](Oc3cc(N4CCOCC4)cc4nccnc34)CC2)nc(C2CC2)n1 [Compound 605]
pKi: > 7.00

N#Cc1cccnc1N[C@H]1CC[C@@H](Oc2cc(N3CCOCC3)cc3nccnc23)CC1 [Compound 87]
pKi: > 7.00

Cc1cc(C#N)cnc1N[C@H]1CC[C@@H](Oc2cc(N3CCOCC3)cc3nccnc23)CC1 [Compound 242]
pKi: > 7.00

COCc1cc(N[C@H]2CC[C@@H](Oc3cc(N4CCOCC4)cc4nccnc34)CC2)ncn1 [Compound 225]
pKi: > 7.00

Cc1ccc(N[C@H]2CC[C@@H](Oc3cc(N4CCOCC4)cc4nccnc34)CC2)nc1 [Compound 256]
pKi: > 7.00

COc1cc(N[C@H]2CC[C@@H](Oc3cc(N4CCOCC4)cc4nccnc34)CC2)nc(OC)n1 [Compound 245]
pKi: > 7.00

O[C@@H](c1cnc(N[C@H]2CC[C@@H](Oc3cc(N4CCOCC4)cc4nccnc34)CC2)nc1)C(F)(F)F [Compound 236]
pKi: > 7.00

CN(C)C(=O)c1cnc(N[C@H]2CC[C@@H](Oc3cc(N4CCOCC4)cc4nccnc34)CC2)cn1 [Compound 108]
pKi: > 7.00

CN1CCN(c2ccc(C(=O)N[C@H]3CC[C@@H](Oc4cc(N5CCOCC5)cc5nccnc45)CC3)nc2)CC1 [Compound 198]
pKi: > 7.00

N#Cc1nccc(N[C@H]2CC[C@@H](Oc3cc(N4CCOCC4)cc4nccnc34)CC2)n1 [Compound 203]
pKi: > 7.00

Nc1ccc(N[C@H]2CC[C@@H](Oc3cc(N4CCOCC4)cc4nccnc34)CC2)nc1 [Compound 197]
pKi: > 7.00

NC(=O)c1ccc(N[C@H]2CC[C@@H](Oc3cc(N4CCOCC4)cc4nccnc34)CC2)nc1 [Compound 140]
pKi: > 7.00

c1cnc(O[C@H]2CC[C@@H](Nc3cc(N4CCOCC4)cc4nccnc34)CC2)nc1 [Compound 46]
pKi: > 7.00

Nc1cnc(N[C@H]2CC[C@@H](Oc3cc(N4CCOCC4)cc4nccnc34)CC2)nc1 [Compound 143]
pKi: > 7.00

CNc1cc(N[C@H]2CC[C@@H](Oc3cc(N4CCOCC4)cc4nccnc34)CC2)ncn1 [Compound 205]
pKi: > 7.00

Cc1cnc(N[C@H]2CC[C@@H](Oc3cc(N4CCOCC4)cc4nccnc34)CC2)nc1 [Compound 142]
pKi: > 7.00

COc1cc(C)nc(N[C@H]2CC[C@@H](Oc3cc(N4CCOCC4)cc4nccnc34)CC2)n1 [Compound 276]
pKi: > 7.00

COC(=O)c1ccc(N[C@H]2CC[C@@H](Oc3cc(N4CCOCC4)cc4nccnc34)CC2)nc1 [Compound 146]
pKi: > 7.00

CC(C)(CO)Nc1ccnc(N[C@H]2CC[C@@H](Oc3cc(N4CCOCC4)cc4nccnc34)CC2)n1 [Compound 264]
pKi: > 7.00

CCc1cnc(N[C@H]2CC[C@@H](Oc3cc(N4CCOCC4)cc4nccnc34)CC2)nc1 [Compound 208]
pKi: > 7.00

CCOc1ncc(F)c(N[C@H]2CC[C@@H](Oc3cc(N4CCOCC4)cc4nccnc34)CC2)n1 [Compound 607]
pKi: > 7.00

Cc1cnc2cc(N3CCOCC3)cc(O[C@H]3CC[C@@H](Nc4ncccn4)CC3)c2n1 [Compound 191]
pKi: > 7.00

N#Cc1ccnc(N[C@H]2CC[C@@H](Oc3cc(N4CCOCC4)cc4nccnc34)CC2)n1 [Compound 207]
pKi: > 7.00

CC(C)NC(=O)c1cnc(N[C@H]2CC[C@@H](Oc3cc(N4CCOCC4)cc4nccnc34)CC2)nc1 [Compound 162]
pKi: > 7.00

CCOCCc1cnc(N[C@H]2CC[C@@H](Oc3cc(N4CCOCC4)cc4nccnc34)CC2)nc1 [Compound 135]
pKi: > 7.00

COc1nc(Cl)cc(N[C@H]2CC[C@@H](Oc3cc(N4CCOCC4)cc4nccnc34)CC2)n1 [Compound 219]
pKi: > 7.00

O=C(O)c1cnc(N[C@H]2CC[C@@H](Nc3cc(N4CCOCC4)cc4nccnc34)CC2)nc1 [Compound 29]
pKi: > 7.00

Cc1cnc(N[C@H]2CC[C@@H](Oc3cc(N4CCOCC4)cc4nccnc34)CC2)nc1N1CCCCC1 [Compound 567]
pKi: > 7.00

CN(C)c1cnc(N[C@H]2CC[C@@H](Oc3cc(N4CCOCC4)cc4nccnc34)CC2)nc1 [Compound 67]
pKi: > 7.00

CC(C)(O)c1cnc(N[C@H]2CC[C@@H](Oc3cc(N4CCOCC4)cc4nccnc34)CC2)nc1 [Compound 243]
pKi: > 7.00

COC(=O)c1cnc(N[C@H]2CC[C@@H](Nc3cc(N4CCOCC4)cc4nccnc34)CC2)cn1 [Compound 32]
pKi: > 7.00

Brc1cnc(N[C@H]2CC[C@@H](Oc3cc(N4CCOCC4)cc4nccnc34)CC2)nc1 [Compound 45]
pKi: > 7.00

COC(=O)c1cc(N[C@H]2CC[C@@H](Oc3cc(N4CCOCC4)cc4nccnc34)CC2)ncc1OC(C)(C)C [Compound 407]
pKi: > 7.00

O[C@H](c1cnc(N[C@H]2CC[C@@H](Oc3cc(N4CCOCC4)cc4nccnc34)CC2)nc1)C(F)(F)F [Compound 235]
pKi: > 7.00

Cc1ccnc(N[C@H]2CC[C@@H](Oc3cc(N4CCOCC4)cc4nccnc34)CC2)n1 [Compound 246]
pKi: > 7.00

c1ccc(N[C@H]2CC[C@@H](Nc3cc(N4CCOCC4)cc4nccnc34)CC2)nc1 [Compound 24]
pKi: > 7.00

O=C(O)c1ccc(N[C@H]2CC[C@@H](Oc3cc(N4CCOCC4)cc4nccnc34)CC2)nc1 [Compound 139]
pKi: > 7.00

c1ccc(N[C@H]2CC[C@@H](Oc3cc(N4CCOCC4)cc4nccnc34)CC2)nc1 [Compound 254]
pKi: > 7.00

CCCCc1cnc2cc(N3CCOCC3)cc(O[C@H]3CC[C@@H](Nc4ncc(Br)cn4)CC3)c2n1 [Compound 64]
pKi: > 7.00

COc1nc(C)nc(N[C@H]2CC[C@@H](Oc3cc(N4CCOCC4)cc4nccnc34)CC2)n1 [Compound 604]
pKi: > 7.00

COC(=O)c1cc(C)nc(N[C@H]2CC[C@@H](Oc3cc(N4CCOCC4)cc4nccnc34)CC2)n1 [Compound 565]
pKi: > 7.00

COc1nccc(N[C@H]2CC[C@@H](Oc3cc(N4CCOCC4)cc4nccnc34)CC2)n1 [Compound 268]
pKi: > 7.00

CN(C)C(=O)c1ccc(N[C@H]2CC[C@@H](Oc3cc(N4CCOCC4)cc4nccnc34)CC2)nc1 [Compound 145]
pKi: > 7.00

c1cnc2c(O[C@H]3CC[C@@H](Nc4ncc(C5CC5)cn4)CC3)cc(N3CCOCC3)cc2n1 [Compound 109]
pKi: > 7.00

CN(C)C(=O)c1cnc(N[C@H]2CC[C@@H](Oc3cc(N4CCOCC4)cc4nccnc34)CC2)nc1 [Compound 72]
pKi: > 7.00

Cc1ccc(N[C@H]2CC[C@@H](Oc3cc(N4CCOCC4)cc4nccnc34)CC2)nn1 [Compound 450]
pKi: > 7.00

Cc1cc(C)nc(N[C@H]2CC[C@@H](Oc3cc(N4CCOCC4)cc4nccnc34)CC2)n1 [Compound 52]
pKi: > 7.00

CC(C)c1cnc(N[C@H]2CC[C@@H](Oc3cc(N4CCOCC4)cc4nccnc34)CC2)nc1 [Compound 209]
pKi: > 7.00

Brc1ccc(N[C@H]2CC[C@@H](Oc3cc(N4CCOCC4)cc4nccnc34)CC2)nc1 [Compound 164]
pKi: > 7.00

Cc1nc(N[C@H]2CC[C@@H](Oc3cc(N4CCOCC4)cc4nccnc34)CC2)cc(N2CCN(C)CC2)n1 [Compound 275]
pKi: > 7.00

Fc1ccc(N[C@H]2CC[C@@H](Oc3cc(N4CCOCC4)cc4nccnc34)CC2)nn1 [Compound 60]
pKi: > 7.00

CN(C)c1nc(N[C@H]2CC[C@@H](Oc3cc(N4CCOCC4)cc4nccnc34)CC2)ncc1F [Compound 269]
pKi: > 7.00
